Laboratory results taken from US20160257930A1, “NEURONAL STEM CELL DIFFERENTIATION” (priority 2013, published 2016).
Entries after “also recorded” stand apart in the source; their conditions may differ. Where two headings read alike, the source gives them in different places.

What was measured:
Format in all cases: cell-based, human
[1] = tested on: hPSC-derived neurons; experiment: Fura-2 Ca2+ imaging; conditions: 15 s; for intracellular Ca2+ response to glutamate receptor agonists: 100 micromolar agonist (NMDA plus 10 micromolar glycine)
Experimental: A. Exemplar time-course of Fura 2 fluorescence recording of intracellular Ca^2+ concentration in a neuron derived from hPSCs differentiated using the protocol. At each arrow, the cell was exposed sequentially for 15 s to the following solutions: ECS with high potassium chloride concentration (50 mM, isoosmotically replacing NaCl) to evoke a cell depolarization; […] ECS with low sodium chloride concentration (15 mM final, isoosmotically replaced by sodium isethionate) with 300 microM GABA, ECS containing 100 micromolar NMDA plus 10 micromolar glycine; […] The ratiometric Ca^2+ sensitive dye Fura-2-AM (Molecular Probes, Eugene, Oreg., USA) was used for Ca^2+ imaging experiments. This dye was purchased as a dry powder in 50 μg aliquots. Before use, these aliquots were dissolved in 50 μl DMSO (Sigma) by vortex. They were then incubated at 37° C. for 1 h to ensure the dye was fully dissolved. 1 μl of the 1 mg/ml Fura-2-AM stock was added to 250 μl of normal cell growth media and mixed. Cells on glass coverslips were then added to the well and incubated for 30 min at 37° C. and 5% CO2 in a humidified tissue culture incubator. Both stocks and media containing the dye were stored out of direct light to prevent photo-bleaching of the dye. This incubation allowed for Fura-2-AM to be taken up by the cells, cleaved and turned into the active dye Fura-2. Fura-2-loaded cells were placed in a specialised perfusion chamber, designed to allow direct access of the microscope oil-immersion lens with the bottom of the coverslip, mounted upon an Olympus IX71 equipped with a Cairn monochromator-based fluorescence system (Cairn Instruments, Faversham, UK) and were continuously superfused with ECS. Imaging was performed at room temperature. Fura-2 was alternately excited using fluorescence light emitted from the monochromator at 340 and 380 nm. Images at 510 nm were acquired at 0.33 or 0.2 Hz by a slow-scan CCD camera (Kinetic Imaging Ltd, Nottingham, UK). Solutions, agonists and antagonists were locally applied to the cells using the gravity-driven rapid solution changer. Raw data, in the form of emission intensities at 510 nm, during alternate excitation at 340 or 380 nm, were recorded and stored. Following background subtraction, emission ratios (340/380) were calculated off-line using Microsoft Office Excel (Microsoft, Redmond, Wash., US). Where indicated, data were normalised to the first 10 frames to allow further analysis and for comparisons.

[2] = tested on: iPS-derived neurons; experiment: Whole-cell patch-clamp, current clamp: spontaneous action potentials and resting Vm
Source text: Ag/AgCl electrodes for patch-clamp were produced by leaving pure silver wire in bleach overnight. An Ag/AgCl pellet (Clark Electromedical Instruments) connected to the patch-clamp headstage was used as the bath (reference) electrode. Thin-walled, filamented, borosilicate glass tubes (World-Precision Instruments, UK) were pulled using a two-stage pipette puller (PP-830, Narishige, Japan) to give patch pipettes with a measured tip resistance of 3-6 MΩ when filled with the internal pipette solution. These pipettes were used to establish whole-cell configuration of the patch clamp technique.
Whole-cell patch-clamp was performed at room temperature. Plated down cells grown on glass coverslips were transferred into a perfusion chamber mounted on the stage of an inverted microscope equipped with phase-contrast optics mounted inside a Faraday cage on an anti-vibration air table (Wentworth Laboratories Ltd., Oxford, UK). Continuous perfusion of the cells with ECS was maintained by a gravity-fed system using a 50 mL disposable syringe as a reservoir. Continuous perfusion was maintained at a rate of approximately 2-4 ml per minute. A gravity-fed rapid solution changer (RSC, RSC-200, Bio-Logic, France) was used to apply various solutions directly to the cells when required allowing for solution changes as fast as 20 ms. Waste solution was removed via vacuum suction through a flame-pulled glass tube connected to a waste Buchner flask with Tygon tubing.
Current-clamp was used to apply current protocols, generated using Axon Laboratory's pClamp 9 software to the patched cell. These were recorded on-line for further analysis using the pClamp software. Offline data review and analysis was performed using Axon Laboratory's Clampfit 9, Microsoft Office Excel and Prism6. Spontaneous action potentials (sAPs): Cells were held in current clamp with zero current injection for recording of resting membrane potentials (Vm) and observation of any spontaneous action potentials. Recordings were made using the ‘Gap free’ protocol immediately after whole-cell access to reduce the effect of the pipette ICS dialysing with the actual cytosolic solution and thus influencing the resting membrane potential. Recordings were made for approx. 60 s for a mean calculation of Vm and to allow for spontaneous action potentials to be recorded.
Data from the current step protocols were analysed in Clampfit and exported to Excel for further processing. The average Vm during a 60 s ‘Gap Free’ recording in current clamp was taken as the resting membrane potential. In cells displaying spontaneous activity, an estimation of the baseline was made from the trace.

[3] = tested on: neural progenitors; experiment: Cyquant cell proliferation assay; conditions: increasing concentrations; assayed after 3, 6, 9 and 12 days of culture
Experimental: Cell proliferation in cultures treated with cell cycle and Notch pathway inhibitors were measured using the Cyquant™ Direct Cell Proliferation kit (Invitrogen). Briefly, 1×10^4 neural progenitors were plated per well in black, clear-bottomed 96 well plates (Nunclon) pre-treated with matrigel and cultured in ADF medium supplemented with B27 and small molecule inhibitors such as PD0332991 or DAPT (FIG. 2). Plates were processed according to the manufacturer's instructions and fluorescence Cyquant measurements were taken from triplicate cells on days 3, 6, 9 and 12 of culture using a FLUOstar Optima™ plate reader (BMG Labtech) using FITC (480 nm excitation/535 nm emission) filters in a bottom read fluorescence mode. Each measurement was calibrated by using blank suppression dye as a blank to remove background fluorescence.

[4] = tested on: neural progenitor cultures; experiment: Ki67 immunocytochemistry of neural progenitor cultures; conditions: for Ki67 immunoreactivity: 2 μM PD0332991 or 10 μM DAPT, 3 and 7 days after plating
Experimental: Cells grown on coverslips as described above were fixed with 4% paraformaldehyde at room temperature for 15 minutes. Cells were permeabilised (0.1% Triton X-100 in phosphate buffered saline) for 20 minutes at room temperature, then blocked in blocking solution (2% normal goat serum, 3% bovine serum albumin, 0.1% Triton X-100 in phosphate buffered saline for one hour. Cells were incubated with primary antibodies (rabbit anti-FOXG1, mouse anti-Sox2 (Abcam), mouse anti-ZOI (Abcam), mouse anti-Nestin (Abcam) anti-KI67 (Sigma) and anti-βIII-Tubulin (Sigma) diluted in the same buffer overnight at 4° C. Coverslips were then washed in 0.1% Triton X-100 in phosphate buffered saline 3 times for 5 minutes each and incubated with secondary antibodies (Goat anti-rabbit alexa 594 or Goat anti-mouse 488 secondary antibodies (1:400, Sigma), as appropriate diluted in blocking buffer. Coverslips were washed as above, mounted onto slides using Vectashield with DAPI and imaged using a Olympus BX61 fluorescence microscope.

[5] = 1.8 mM Ca2+ or 300 μM GABA vs control medium (0.6 mM Ca2+), weeks 1 and 2

Cc1o[nH]c(=O)c1CC(N)C(=O)O (stereo not drawn) [AMPA]
intracellular Ca2+ response to glutamate receptor agonists [1]: all cells responded similarly

[Ca+2].[Cl-].[Cl-] [Ca^2+, Calcium Chloride]
mean resting Vm [2]: significant hyperpolarisation of mean resting Vm; also recorded: hyperpolarized the Vm | proportion of cells generating spontaneous activity [2]: enhancement in the proportion of cells generating spontaneous activity; also recorded: increase in spontaneous activity; also recorded: partially mimic the effects of ACM

C[C@H](NC(=O)Cc1cc(F)cc(F)c1)C(=O)N[C@H](C(=O)OC(C)(C)C)c1ccccc1 [DAPT, N-[N-(3,5-Difluorophenacetyl)-L-alanyl]-S-phenylglycine t-butyl ester]
cell proliferation (relative Cyquant fluorescence, proportional to cell number) [3]: reduces cell proliferation; also recorded: inhibit neural progenitor proliferation | Ki67 immunoreactivity [4]: more progressive loss of Ki67 immunostaining | synchronisation of cell cycle exit and differentiation ([4]; DAPT treatment alone): insufficient to synchronise cell cycle exit and differentiation

NCCCC(=O)O [GABA, γ-aminobutyric acid]
rescue of Vm [2]: evoked a hyperpolarisation | mean resting Vm [2, 5]: as effective as the increased extracellular Ca^2+ | proportion of cells generating spontaneous activity [2, 5]: as effective as the increased extracellular Ca^2+; also recorded: partially mimic the effects of ACM | intracellular Ca2+ response to GABA in high chloride ([1]; 300 microM GABA in ECS): all neurons responded to GABA in high chloride | intracellular Ca2+ response to GABA in low chloride ([1]; 300 microM GABA, low chloride ECS): few cells responded to GABA in low chloride

CN[C@H](CC(=O)O)C(=O)O [NDMA]
intracellular Ca2+ response to glutamate receptor agonists [1]: all cells responded similarly

CC(=O)c1c(C)c2cnc(Nc3ccc(N4CCNCC4)cn3)nc2n(C2CCCC2)c1=O [PD0332991]
cell proliferation (relative Cyquant fluorescence, proportional to cell number) [3]: concentration-dependent growth arrest; also recorded: inhibit neural progenitor proliferation | Ki67 immunoreactivity [4]: complete loss of Ki67 immunopositive cells

SNX-482
ACM-evoked hyperpolarization (mean Vm) [2]: abolished
